Patent US6358885B1, “Substituted phenylheterocyclic herbicides” (Mississippi State University, priority 1992, dated 2002)

Legend:
barley [1] = assay: Test B preemergence/postemergence greenhouse plant response rating 0 to 10; format: in vivo, Hordeum vulgare; conditions: for Plant response rating, Barley: 0 to 10 scale
Outline: (§1)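 Test chemicals were sprayed onto freshly planted seed and, concurrently, onto young plants between the one and four leaf stage. After a twelve- to sixteen-day greenhouse period, each species was visually compared with untreated controls.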

bedstraw = assay: as above; format: in vivo, Galium aparine; conditions: for Plant response rating, Bedstraw: 0 to 10 scale
Outline: as §1

chickweed [2] = assay: as above; format: in vivo, Stellaria media; conditions: for Plant response rating, Chickweed: 0 to 10 scale
Outline: as §1

cocklebur = assay: as above; format: in vivo, Xanthium pensylvanicum; conditions: for Plant response rating, Cocklebur: 0 to 10 scale
Outline: as §1

morningglory = assay: as above; format: in vivo, Ipomoea hederacea; conditions: for Plant response rating, Morningglory: 0 to 10 scale
Outline: as §1

sorghum = assay: as above; format: in vivo, Sorghum bicolor; conditions: for Plant response rating, Sorghum: 0 to 10 scale
Outline: as §1

soybean [3] = assay: as above; format: in vivo, Glycine max; conditions: for Plant response rating, Soybean: 0 to 10 scale
Outline: as §1

sugar beet = assay: as above; format: in vivo, Beta vulgaris; conditions: for Plant response rating, Sugar beet: 0 to 10 scale
Outline: as §1

velvetleaf = assay: as above; format: in vivo, Abutilon theophrasti; conditions: for Plant response rating, Velvetleaf: 0 to 10 scale
Outline: as §1

wild buckwheat = assay: as above; format: in vivo, Polygonum convolvulus; conditions: for Plant response rating, Wild buckwheat: 0 to 10 scale
Outline: as §1

barley [4] = assay: Test C preemergence/postemergence greenhouse plant response rating 0 to 100; format: in vivo, Hordeum vulgare; conditions: for Plant response rating Barley Igri: 125 g/ha, 0 to 100 scale
Outline: (§2)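 Compounds in non-phytotoxic solvent went onto sandy loam before emergence (seeded one day earlier) or onto plants at the one-to-four leaf stage. Duck salad was treated via flood water (~2.5 cm, maintained) over silt loam.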

blackgrass = assay: as above; format: in vivo, Alopecurus myosuroides; conditions: for Plant response rating, Blackgrass: 125 g/ha, 0 to 100 scale
Outline: as §2

chickweed [5] = assay: as above; format: in vivo, Stellaria media; conditions: for Plant response rating, Chickweed: 125 g/ha, 0 to 100 scale
Outline: as §2

pigweed = assay: as above; format: in vivo, Amaranthusretroflexus; conditions: for Plant response rating Pigweed: 125 g/ha, 0 to 100 scale
Outline: as §2

rape = assay: as above; format: in vivo, Brassica napus; conditions: for Plant response rating, Rape: 125 g/ha, 0 to 100 scale
Outline: as §2

ryegrass = assay: as above; format: in vivo, Lolium multiflorum; conditions: for Plant response rating Ryegrass: 125 g/ha, 0 to 100 scale
Outline: as §2

soybean [6] = assay: as above; format: in vivo, Glycine max; conditions: for Plant response rating, Soybean: 125 g/ha, 0 to 100 scale
Outline: as §2

umbrella sedge = assay: Test C flood test plant response rating 0 to 100; format: in vivo, Cyperus difformis
Outline: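 Compounds in non-phytotoxic solvent applied preemergence to sandy loam one day after planting, postemergence at the 1–4 leaf stage, or to ~2.5 cm floodwater over silt loam.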

COCOc1cc(-c2nn3c(c2Cl)CCCC3)c(F)cc1Cl [Compound 58]
25: Plant response rating (0 to 100), Umbrella sedge (umbrella sedge; POSTEMERGENCE section, flood test, Rate 2 g/ha)
20: Plant response rating (0 to 100), Blackgrass (blackgrass; POSTEMERGENCE, Rate 2 g/ha) | Plant response rating (0 to 100), Blackgrass (blackgrass; Rate 8 g/ha, PREEMERGENCE) | Plant response rating (0 to 100), Chickweed (chickweed [5]; POSTEMERGENCE, Rate 2 g/ha)
6: Plant response rating, Barley (barley [1]; POSTEMERGENCE, Rate 50 g/ha) | Plant response rating, Bedstraw (bedstraw; PREEMERGENCE, Rate 50 g/ha) | Plant response rating, Cocklebur (cocklebur; POSTEMERGENCE, Rate 50 g/ha) | Plant response rating, Sorghum (sorghum; Rate 200 g/ha, POSTEMERGENCE)
4: Plant response rating (0 to 10 scale), Barley (barley [1]; PREEMERGENCE, Rate 200 g/ha) | Plant response rating, Morningglory (morningglory; PREEMERGENCE, Rate 50 g/ha) | Plant response rating (0 to 10 scale), Morningglory (morningglory; PREEMERGENCE, Rate 200 g/ha) | Plant response rating, Sorghum (sorghum; POSTEMERGENCE, Rate 50 g/ha)
40: Plant response rating (0 to 100), Barley Igri (barley [4]; Rate 8 g/ha, POSTEMERGENCE)
50: Plant response rating (0 to 100), Barley Igri (barley [4]; Rate 31 g/ha, POSTEMERGENCE) | Plant response rating (0 to 100), Blackgrass (blackgrass; Rate 8 g/ha, POSTEMERGENCE) | Plant response rating (0 to 100), Rape (rape; Rate 8 g/ha, POSTEMERGENCE) | Plant response rating (0 to 100), Ryegrass (ryegrass; Rate 31 g/ha, PREEMERGENCE) | Plant response rating (0 to 100), Soybean (soybean [6]; POSTEMERGENCE, Rate 2 g/ha) | Plant response rating (0 to 100), Soybean (soybean [6]; Rate 8 g/ha, POSTEMERGENCE)
85: Plant response rating, Blackgrass (blackgrass; POSTEMERGENCE) | Plant response rating Ryegrass (ryegrass; POSTEMERGENCE) | Plant response rating, Soybean (soybean [6]; POSTEMERGENCE)
10: Plant response rating, Bedstraw (bedstraw; POSTEMERGENCE, Rate 50 g/ha) | Plant response rating, Chickweed (chickweed [2]; PREEMERGENCE, Rate 50 g/ha) | Plant response rating (0 to 10 scale), Chickweed (chickweed [2]; PREEMERGENCE, Rate 200 g/ha) | Plant response rating, Chickweed (chickweed [2]; Rate 200 g/ha, POSTEMERGENCE) | Plant response rating, Cocklebur (cocklebur; Rate 200 g/ha, POSTEMERGENCE) | Plant response rating, Morningglory (morningglory; Rate 200 g/ha, POSTEMERGENCE) | Plant response rating, Sugar beet (sugar beet; POSTEMERGENCE, Rate 50 g/ha) | Plant response rating (0 to 10 scale), Sugar beet (sugar beet; PREEMERGENCE, Rate 200 g/ha) | Plant response rating, Sugar beet (sugar beet; Rate 200 g/ha, POSTEMERGENCE) | Plant response rating, Velvetleaf (velvetleaf; PREEMERGENCE, Rate 50 g/ha) | Plant response rating (0 to 10 scale), Velvetleaf (velvetleaf; PREEMERGENCE, Rate 200 g/ha) | Plant response rating, Velvetleaf (velvetleaf; Rate 200 g/ha, POSTEMERGENCE) | Plant response rating, Wild buckwheat (wild buckwheat; POSTEMERGENCE, Rate 50 g/ha) | Plant response rating (0 to 10 scale), Wild buckwheat (wild buckwheat; PREEMERGENCE, Rate 200 g/ha) | Plant response rating, Wild buckwheat (wild buckwheat; Rate 200 g/ha, POSTEMERGENCE) | Plant response rating (0 to 100), Chickweed (chickweed [5]; PREEMERGENCE, Rate 2 g/ha) | Plant response rating (0 to 100), Chickweed (chickweed [5]; Rate 31 g/ha, PREEMERGENCE) | Plant response rating (0 to 100), Rape (rape; Rate 31 g/ha, PREEMERGENCE) | Plant response rating (0 to 100), Ryegrass (ryegrass; POSTEMERGENCE, Rate 2 g/ha)
2: Plant response rating, Sorghum (sorghum; PREEMERGENCE, Rate 50 g/ha)
0: Plant response rating, Cocklebur (cocklebur; PREEMERGENCE, Rate 50 g/ha) | Plant response rating, Soybean (soybean [3]; PREEMERGENCE, Rate 50 g/ha) | Plant response rating (0 to 10 scale), Soybean (soybean [3]; PREEMERGENCE, Rate 200 g/ha) | Plant response rating (0 to 100), Barley Igri (barley [4]; PREEMERGENCE, Rate 2 g/ha) | Plant response rating (0 to 100), Barley Igri (barley [4]; Rate 8 g/ha, PREEMERGENCE) | Plant response rating (0 to 100), Barley Igri (barley [4]; Rate 31 g/ha, PREEMERGENCE) | Plant response rating (0 to 100), Blackgrass (blackgrass; PREEMERGENCE, Rate 2 g/ha) | Plant response rating (0 to 100), Pigweed (pigweed; PREEMERGENCE, Rate 2 g/ha) | Plant response rating (0 to 100), Rape (rape; PREEMERGENCE, Rate 2 g/ha) | Plant response rating (0 to 100), Rape (rape; Rate 8 g/ha, PREEMERGENCE) | Plant response rating (0 to 100), Ryegrass (ryegrass; PREEMERGENCE, Rate 2 g/ha) | Plant response rating (0 to 100), Ryegrass (ryegrass; Rate 8 g/ha, PREEMERGENCE) | Plant response rating, Soybean (soybean [6]; PREEMERGENCE) | Plant response rating (0 to 100), Soybean (soybean [6]; PREEMERGENCE, Rate 2 g/ha) | Plant response rating (0 to 100), Soybean (soybean [6]; Rate 8 g/ha, PREEMERGENCE) | Plant response rating (0 to 100), Soybean (soybean [6]; Rate 31 g/ha, PREEMERGENCE)
3: Plant response rating (0 to 10 scale), Sorghum (sorghum; PREEMERGENCE, Rate 200 g/ha)
1: Plant response rating, Barley (barley [1]; PREEMERGENCE, Rate 50 g/ha)
65: Plant response rating (0 to 100), Blackgrass (blackgrass; Rate 31 g/ha, POSTEMERGENCE)
70: Plant response rating, Blackgrass (blackgrass; PREEMERGENCE) | Plant response rating, Chickweed (chickweed [5]; PREEMERGENCE) | Plant response rating (0 to 100), Chickweed (chickweed [5]; Rate 8 g/ha, POSTEMERGENCE) | Plant response rating, Rape (rape; PREEMERGENCE) | Plant response rating (0 to 100), Rape (rape; Rate 31 g/ha, POSTEMERGENCE) | Plant response rating (0 to 100), Soybean (soybean [6]; Rate 31 g/ha, POSTEMERGENCE) | Plant response rating (0 to 100), Umbrella sedge (umbrella sedge; Rate 31 g/ha, under POSTEMERGENCE head (flood test species))
30: Plant response rating (0 to 100), Barley Igri (barley [4]; POSTEMERGENCE, Rate 2 g/ha) | Plant response rating Barley Igri (barley [4]; PREEMERGENCE) | Plant response rating (0 to 100), Rape (rape; POSTEMERGENCE, Rate 2 g/ha) | Plant response rating (0 to 100), Ryegrass (ryegrass; Rate 8 g/ha, POSTEMERGENCE) | Plant response rating (0 to 100), Umbrella sedge (umbrella sedge; Rate 8 g/ha, under POSTEMERGENCE head (flood test species))
7: Plant response rating, Soybean (soybean [3]; POSTEMERGENCE, Rate 50 g/ha)
8: Plant response rating, Barley (barley [1]; Rate 200 g/ha, POSTEMERGENCE)
60: Plant response rating Barley Igri (barley [4]; POSTEMERGENCE) | Plant response rating (0 to 100), Blackgrass (blackgrass; Rate 31 g/ha, PREEMERGENCE) | Plant response rating (0 to 100), Ryegrass (ryegrass; Rate 31 g/ha, POSTEMERGENCE)
90: Plant response rating (0 to 100), Pigweed (pigweed; POSTEMERGENCE, Rate 2 g/ha)
9: Plant response rating (0 to 10 scale), Bedstraw (bedstraw; PREEMERGENCE, Rate 200 g/ha) | Plant response rating, Bedstraw (bedstraw; Rate 200 g/ha, POSTEMERGENCE) | Plant response rating, Chickweed (chickweed [2]; POSTEMERGENCE, Rate 50 g/ha) | Plant response rating (0 to 10 scale), Cocklebur (cocklebur; PREEMERGENCE, Rate 200 g/ha) | Plant response rating, Morningglory (morningglory; POSTEMERGENCE, Rate 50 g/ha) | Plant response rating, Soybean (soybean [3]; Rate 200 g/ha, POSTEMERGENCE) | Plant response rating, Sugar beet (sugar beet; PREEMERGENCE, Rate 50 g/ha) | Plant response rating, Velvetleaf (velvetleaf; POSTEMERGENCE, Rate 50 g/ha) | Plant response rating, Wild buckwheat (wild buckwheat; PREEMERGENCE, Rate 50 g/ha)
100: Plant response rating, Chickweed (chickweed [5]; POSTEMERGENCE) | Plant response rating (0 to 100), Chickweed (chickweed [5]; Rate 31 g/ha, POSTEMERGENCE) | Plant response rating Pigweed (pigweed; POSTEMERGENCE) | Plant response rating Pigweed (pigweed; PREEMERGENCE) | Plant response rating (0 to 100), Pigweed (pigweed; Rate 8 g/ha, POSTEMERGENCE) | Plant response rating (0 to 100), Pigweed (pigweed; Rate 8 g/ha, PREEMERGENCE) | Plant response rating (0 to 100), Pigweed (pigweed; Rate 31 g/ha, POSTEMERGENCE) | Plant response rating (0 to 100), Pigweed (pigweed; Rate 31 g/ha, PREEMERGENCE) | Plant response rating, Rape (rape; POSTEMERGENCE) | Plant response rating Ryegrass (ryegrass; PREEMERGENCE) | Plant response rating Umbrella sedge (umbrella sedge; flood test species listed under POSTEMERGENCE, 125 g/ha, 0 to 100 scale)
